Measured values as given in patent US8129532B2, “Amino(oligo)thiophene dyes, preparation thereof, and optical methods of use” (The University of Connecticut, priority 2007, dated 2012).

System: layer V pyramidal neurons
Experiment: Voltage-sensitive dye imaging of action potentials in intracellularly stained pyramidal neurons in brain slices
Type: cell-based, Sprague Dawley rats
Details: for dF/F at 633 nm / dF/F at 658 nm: backpropagating AP, %; for dF/F at 633 nm / dF/F at 658 nm / voltage sensitivity compared with red dye: basal dendrites 80-150 μm from soma; for dF/F at 633 nm / S/N ratio at 633 nm: laser spot 633 nm; for dF/F at 658 nm / S/N ratio at 658 nm: laser spot 658 nm
Source text: Sprague Dawley rats (P21-42) were anesthetized with isoflurane, decapitated, and the brains were removed with the head immersed in ice-cold, artificial cerebrospinal fluid (ACSF), according to an animal protocol approved by the Center for Laboratory Animal Care, University of Connecticut. Brain slices (300 μm) were cut from frontal lobes in the coronal plane. ACSF contained (in mM) 125 NaCl, 26 NaHCO3, 10 glucose, 2.3 KCl, 1.26 KH2PO4, 2 CaCl2 and 1 MgSO4, pH 7.4. Whole-cell recordings were made from visually identified layer V pyramidal neurons on the medial part of the slice. Intracellular solution contained (in mM) 135 K-gluconate, 2 MgCl2, 3 Na2-ATP, 10 Na2-phosphocreatine, 0.3 Na2-GTP and 10 Hepes (pH 7.3, adjusted with KOH). Electrical signals were amplified with Multiclamp 700A and digitized with two input boards: (1) Digidata Series 1322A (Axon Instruments) at 5 kHz, and (2) Neuroplex (RedShirtImaging) at 2.7 kHz sampling rate. Only cells with a membrane potential more hyperpolarized than −50 mV, and action potential amplitudes exceeding 80 mV (measured from the base line) were included in this study. All experiments were performed on layer 5 cortical pyramidal cells at 34° C.
Blue dyes were stored in ethanol stock solution at −20° C. On the day of the recording blue dyes were dissolved in standard K-gluconate based intracellular solution. A loading pipette was filled with two varieties of the same intracellular solution; one with and one without dye. Dye-free solution was occupying the very tip of the pipette, while the back of the pipette lumen was microloaded with dye-rich solution. The purpose of dye-free solution in the tip of the patch pipette was to prevent dye-leak during the maneuver through brain slice tissue. VSD styryl dyes are lipophilic and bind indiscriminately and irreversibly to all membranes around the neuron of interest. Even a small amount of dye that leaks out of the pipette during the formation of the gigaohm seal, can generate strong fluorescent background. Fluorescent light emanating from surrounding tissue has a devastating effect on dendritic optical signals. Elimination of the background fluorescence is critical for dendritic voltage imaging. How much dye-free solution one should put in the tip depends on time period between the submersion of the patch pipette into the recording chamber and formation of the gigaohm seal. The faster one can perform this maneuver the less dye-free solution she needs to achieve optimal staining.
Blue VSD were injected at room temperature for 25-60 minutes. The filling pipette was carefully pulled out (outside-out patch) and brain slices were left to incubate for 20-120 minutes at room temperature. Just before optical recordings the cells were re-patched with dye-free pipette at the physiological temperature (34° C.).
Voltage-sensitive dye imaging was performed on a Zeiss Axioskope 2FS microscope equipped with NeuroCCD camera (RedShirtImaging). We used Zeiss 40× objective IR-Achroplan 0.80 W. The size of the square visual field captured by NeuroCCD camera was 384×384 um. In the place of the arc lamp (normally used for epi-illumination), we inserted a 200 μm fiber optic guide with a collimator. Laser beam was focused on the other side of the fiber optic guide using a microscope objective-like lens. This arrangement produced a motionless spot of laser light (˜25 μm in diameter) at the object plane. An illuminated section of the brain slice, projected onto the NeuroCCD camera, covered approximately 25 pixels when used with 40× objective lens. At this magnification, one pixel sampled a 4.8×4.8 square in the object plane. A region of interest (ROI) was brought into the laser spot using X-Y microscope platform. The laser beam was interrupted by an electro-programmable shutter (Uniblitz®). Attention was made to limit the exposure time during the recording and positioning of the neuron.

| Compound | polarity of optical signal at 532 nm excitation | polarity of optical signal at 658 nm excitation | dF/F at 633 nm [%] | dF/F at 658 nm [%] | voltage sensitivity compared with red dye | S/N ratio at 633 nm | S/N ratio at 658 nm |
| --- | --- | --- | --- | --- | --- | --- | --- |
| CCCCN(CCCC)c1ccc(-c2ccc(/C=C/c3cc[n+](CCC[N+](CC)(CC)CC)cc3)s2)s1 [PY-1266, Di-4-BTEPPTEA] | positive signals | positive signals | 10.41 ± 2.80 | 8.32 ± 2.13 | better sensitivity than red dye JPW-3028 | 4.77 ± 1.35 | 5.22 ± 1.32 |
| CCCN(CCC)c1ccc(-c2ccc(/C=C/c3cc[n+](CCC[N+](CC)(CC)CC)cc3)s2)s1 [PY-1286, Di-3-BTEPPTEA] | – | – | 13.67 ± 2.89 | 7.64 ± 2.20 | better sensitivity than red dye JPW-3028 | 4.53 ± 0.95 | 5.13±2.31 |
| CCN(CC)c1ccc(-c2ccc(/C=C/c3cc[n+](CCC[N+](CC)(CC)CC)cc3)s2)s1 [PY-1261, Di-2-BTEPPTEA] | – | – | – | 7.91 ± 1.57 | better sensitivity than red dye JPW-3028 | – | 5.38 ± 1.86 |
